Experimental data reported in US5817651A, “3-arylcarbonyl-1-(C-attached-N-heteryl)-1H-indoles” (Sanofi, priority 1997, dated 1998).
Read-outs that look alike come from different tables or passages of the source.

Tests used:
[1] = tested on: acetylcholine-induced abdominal constriction; assay: acetylcholine-induced abdominal constriction test (ACH); format: in vivo; set-up: key to ACH remark (Depr. = depressant): The abbreviations IA and Depr. represent, respectively, inactive and depressant; The abbreviations IA and Depr. represent, respectively, inactive and depressant; conditions: mice; for ED50: Mus musculus
Method in brief: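 Compounds were given as gum tragacanth suspensions or as aqueous solutions dissolved with dilute methanesulfonic or lactic acid.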

[2] = tested on: adjuvant induced arthritis; assay: developing adjuvant arthritis (AA) assay; format: in vivo; set-up: key: Non-statistically significant results are recorded as "------ "; conditions: arthritic rats; printed * = p<0.01, ** = p<0.05
Method in brief: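 Rats given complete Freund's adjuvant into the right hindpaw on day 1. Drug treatment begins while disease is developing but not yet irreversible. Swelling of non-injected (NIP) and injected (RPV) paws read 15–20 days later, expressed as percent inhibition; active at p<0.05.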

[3] = tested on: bradykinin; assay: anti-bradykinin test (BDK); format: in vivo; set-up: key to BDK result (po): The abbreviations IA and Depr. represent, respectively, inactive and depressant; The abbreviations IA and Depr. represent, respectively, inactive and depressant; conditions: po
Excerpt: (§1) The test procedures used to determine the analgesic activities of the compounds have been described in detail in the prior art and are as follows: The acetylcholine-induced abdominal constriction test, which is a primary analgesic screening test designed to measure the ability of a test agent to suppress acetylcholine-induced abdominal constriction in mice, described by Collier et al., Brit. J. Pharmacol. Chemotherap. 32, 295 (1968); a modification of the anti-bradykinin test, which is also a primary analgesic screening procedure, described by Berkowitz et al., J. Pharmacol. Exptl. Therap. 177, 500-508 (1971), Blane et al., J. Pharm. Pharmacol. 19, 367-373 (1967), Botha et al., Eur. J. Pharmacol. 6, 312-321 (1969) and Deffenu et al., J. Pharm. Pharmacol. 18, 135 (1966); and the Randall-Selitto analgesic test described by Randall and Selitto, Arch. Int. Pharmacodyn., 111, 409-419 (1957).
(§2) Data in the developing adjuvant arthritis (AA) and plasma fibronectin (FN) assays are expressed as percent inhibition, i.e. inhibition of non-injected paw inflammation (NIP) and injected paw (RPV) and lowering of plasma fibronectin, the asterisks * and ** indicating statistical significance at the p<0.01 and p<0.05 levels, respectively. Compounds are considered active at p<0.05 level. Non-statistically significant results are recorded as "------ ". In the acetylcholine-induced abdominal constriction test, the test compounds were administered either as suspensions in gum tragacanth (GT) or as aqueous solutions prepared by addition of just sufficient dilute aqueous methanesulfonic acid (MS) or dilute aqueous lactic acid (LA) to dissolve the compound. The compounds are identified by the example number above where their preparations are described. All data in the anti-bradykinin, rat writhing and Randall-Selitto tests were obtained on oral administration.

[4] = tested on: mouse vasa deferentia preparation; assay: mouse vas deferens test (MVD); format: cell-based; conditions: Mus musculus, inhibition of contractions, in vitro; active at 5.0 μM or less
Excerpt: It has been shown previously that smoking marijuana reduces intraocular pressure in man [Helper and Frank, Marijuana Smoking and Intraocular Pressure., J. Am. Med. Assoc. 217, 1392 (1971)]. Topical application or systemic injection of delta-9 tetrahydrocannabinol, a principal active ingredient in marijuana, also reduces intraocular pressure [Purnell and Gregg, delta-9 Tetrahydrocannabinol, Euphoria and Intraocular Pressure in Man., Ann. Opth. 7, 921-923 (1975); Green and Pederson, Effect of delta-9 Tetrahydrocannabinol on Aqueous Dynamics and Ciliary Body Permeability in the Rabbit Eye., Exptl. Eye Research 15, 499-507 (1973); Colasanti, Craig and Allara, Intraocular Pressure, Ocular Toxicity and Neurotoxicity after Administration of Cannabinol or Cannibigerol, Exptl. Eye Research 39, 252-259 (1984)]. Similarly, synthetic cannabinoids also reduce intraocular pressure [Green, Symunds, Oliver and Elijah, Intraocular Pressure Following Systemic Administration of Cannabinoids., Curr. Eye Research 2, 247-253 (1982); Tiedeman, Shields, Weber, Crow, Coccetto, Harris and Howes, Opthalmology, 88, 270-277 (1981); Colasanti et al., supra]. Cannabinoid receptor binding sites can be defined as those to which radio-labelled 4-(1,1-dimethylheptyl)-2,3'-dihydroxy-6'alpha-(3-hydroxypropyl)-1', 2', 3', 4', 5', 6'-hexahydrobiphenyl (CP 55940) binds in a specific and saturable manner and the binding sites are heterogeneously distributed in the brain [Devane, Dysarz, Johnson, Melvin and Howlett, Determination and Characterization of a Cannabinoid Receptor in Rat Brain, Molecular Pharm. 34, 605-613 (1988)]. Natural and synthetic cannabinoids and certain of the compounds of the present invention, as more particularly described above, bind to CP 55940 binding sites. […] It is believed that agonist activity at the cannabinoid receptor mediates the anti-glaucoma actions of cannabinoids, and that agonist activity at this receptor correlates with ocular pressure lowering actions in man. Accordingly the cannabinoid receptor agonist activity of the compounds of the present invention indicate their usefulness in reducing ocular pressure.

[5] = tested on: paw pressure; assay: Randall-Selitto (RS) paw pressure test; format: in vivo; conditions: oral administration; read-out: RS minimum effective dose, MED
Excerpt: as §1, §2

[6] = tested on: acetic acid-induced writhing; assay: acetic acid-induced writhing assay in the rat (RW); format: in vivo
Method in brief: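 Rats received the test compounds by the oral route. The read-out was abdominal writhing.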

[7] = target: T1, Cannabinoid receptor (CP 55940 binding sites) (Rattus norvegicus, UniProt P20272); assay: CP 55940 binding assay
T1 construct: from tissue

[8] = Table 9, Examples, no route marked in the cell, read-out: ACH ED50
[9] = iv, Table 9, iv, read-out: ACH ED50 (iv)

T1 sequence (P20272 whole entry): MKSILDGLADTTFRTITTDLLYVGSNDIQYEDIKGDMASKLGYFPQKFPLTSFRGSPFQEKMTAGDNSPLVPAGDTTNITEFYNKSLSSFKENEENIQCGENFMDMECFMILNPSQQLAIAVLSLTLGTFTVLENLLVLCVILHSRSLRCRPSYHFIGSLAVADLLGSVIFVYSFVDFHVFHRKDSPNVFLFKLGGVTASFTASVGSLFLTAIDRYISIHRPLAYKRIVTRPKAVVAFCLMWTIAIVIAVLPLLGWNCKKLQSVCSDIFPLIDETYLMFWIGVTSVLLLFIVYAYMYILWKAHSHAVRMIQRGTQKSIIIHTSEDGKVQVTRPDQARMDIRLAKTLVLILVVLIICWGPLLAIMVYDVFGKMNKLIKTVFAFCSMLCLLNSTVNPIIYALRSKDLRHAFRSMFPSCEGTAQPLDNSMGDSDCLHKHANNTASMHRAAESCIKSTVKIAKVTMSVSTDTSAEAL

Compound | ED50 [1, 8] [mg/kg] | ED50 [1, 9] [mg/kg] | NIP: percent inhibition of non-injected paw inflammation [2] | RPV: percent inhibition of injected paw [2] [%] | BDK result (po) [3] | IC50 [4] [nM] | minimal effective dose [5] [mg/kg] | ED50 ([6]; Rattus norvegicus, po, oral administration) [mg/kg] | ACH ED50 (iv) ([1]; Table 9, iv) [mg/kg] | ACH remark (Depr. = depressant) ([1]; Table 9, remark beside the ED50) | RW percent inhibition at dose 30 ([6]; oral, dose level 30) [%] | IC50 [7] [nM]
COc1ccc(C(=O)c2c(C)n(CC3CCCN3C)c3ccccc23)cc1 (racemic) [Example 2E] | 27 | 6 | -- | 24 | IA | 63 | 0.03 | 6 |  |  |  | 
CN1CCCCC1Cn1cc(C(=O)c2cccc3ccccc23)c2ccccc21 (stereo not drawn) [Example 2P] | 9 | 0.03 |  |  |  | 0.22 |  |  | 0.05 | Depr. | 98 | 1.4
